The numbers were not newly measured in PubChem BioAssay AID1259409 (Chemical Carcinogenesis Research Information System (CCRIS), 2018), which cites them from elsewhere.

This series concerns rodent chemically induced tumor inhibition, incidence and multiplicity. The series can be described thus: CCRIS tumor inhibitor studies.

As for `COCC(=O)[C@@]1(OC(C)=O)CC[C@H]2[C@@H]3CCC4=CC(=O)CCC4=C3[C@@H](c3ccc(N(C)C)cc3)C[C@@]21C`, the “tumour outcome (control, treated, inhibition, significance)” value runs as follows: (Carcinogen: 7,12-Dimethylbenz(a)anthracene (57-97-6), Dose [Inhibitor]: 1 mg administered daily for 28 days, Route [Inhibitor]: Subcutaneous, Species: Rat, Strain/Sex: Sprague-Dawley/Female, Target Tissue: Type of Lesion: Mammary gland: Adenocarcinoma and papilliary carcinoma, Dose [Carcinogen]: 10 mg/kg once at 50 days of age, Promoter: None) 12/13 (92%), 9/11 (82%), 11%, ns; (Carcinogen: 7,12-Dimethylbenz(a)anthracene (57-97-6), Dose [Inhibitor]: 2 mg administered daily for 28 days, Route [Inhibitor]: Subcutaneous, Species: Rat, Strain/Sex: Sprague-Dawley/Female, Target Tissue: Type of Lesion: Mammary gland: Adenocarcinoma and papillary carcinoma, Dose [Carcinogen]: 10 mg/kg once at 50 days of age, Promoter: None) 12/13 (92%), 11/12 (92%), 0%, ns; (Carcinogen: 7,12-Dimethylbenz(a)anthracene (57-97-6), Dose [Inhibitor]: 2 mg administered daily for 28 days, Route [Inhibitor]: Subcutaneous, Species: Rat, Strain/Sex: Sprague-Dawley/Female, Target Tissue: Type of Lesion: Mammary gland: Adenocarcinoma and papillary carcinoma, Dose [Carcinogen]: 10 mg/kg once at 50 days of age, Promoter: Progesterone (57-83-0)) 12/13 (92%), 10/11 (91%), 0%, ns; (Carcinogen: 7,12-Dimethylbenz(a)anthracene (57-97-6), Dose [Inhibitor]: 10 mg administered daily for 28 days, Route [Inhibitor]: Subcutaneous, Species: Rat, Strain/Sex: Sprague-Dawley/Female, Target Tissue: Type of Lesion: Mammary gland: Adenocarcinoma and papillary carcinoma, Dose [Carcinogen]: 10 mg/kg once at 50 days of age, Promoter: None) 12/13 (92%), 10/11 (91%), 0%, ns; (Carcinogen: 7,12-Dimethylbenz(a)anthracene (57-97-6), Dose [Inhibitor]: 10 mg administered daily for 28 days, Route [Inhibitor]: Subcutaneous, Species: Rat, Strain/Sex: Sprague-Dawley/Female, Target Tissue: Type of Lesion: Mammary gland: Adenocarcinoma and papillary carcinoma, Dose [Carcinogen]: 10 mg/kg once at 50 days of age, Promoter: Progesterone (57-83-0)) 12/13 (92%), 10/12 (83%), 10%, ns.
For the molecule `c1ccc2c(Cc3c[nH]c4ccccc34)c[nH]c2c1`, for the setting “Carcinogen: BENZO[A]PYRENE, 50-32-8, Dose [Inhibitor]: 0.02 MMOL/G DIET DAILY STARTING AT 63 D OF AGE (8 D PRIOR TO START OF CARCINOGEN TREATMENT) THROUGH 98 D OF AGE FOLLOWED, Route [Inhibitor]: ORAL, Species: MOUSE, Strain/Sex: ICR/FEMALE, Target Tissue: Type of Lesion: FORESTOMACH: TUMOR, Dose [Carcinogen]: 1 MG IN 0.2 ML CORN OIL ADMINISTERED 2/WK FOR 4 WK, Promoter: NONE USED”, the “tumour outcome (control, treated, inhibition, significance)” value is 93%, 94%, -1%, not significant.
On to `C[n+]1ccc(-c2cc[n+](C)cc2)cc1`, for which the “tumour outcome (control, treated, inhibition, significance)” value is, setting by setting: (Carcinogen: 7,12-DIMETHYLBENZ[A]ANTHRACENE, 57-97-6, Dose [Inhibitor]: 0, 26 MG/KG BW 1/WK FOR 4 WK BEGINNING POST CARCINOGEN DOSE (STUDY DURATION: 4 MO), Route [Inhibitor]: SUBCUTANEOUS, Species: MOUSE, Strain/Sex: ICR/FEMALE, Target Tissue: Type of Lesion: LUNG: TUMOR, Dose [Carcinogen]: 1 MG/KG BW ONCE ADMINISTERED TO NEONATAL MICE, Promoter: NONE USED) 4/10 (40%), 2/9 (22%), 45%, not calculated; (Carcinogen: 7,12-DIMETHYLBENZ[A]ANTHRACENE, 57-97-6, Dose [Inhibitor]: 0, 26 MG/KG BW 1/WK FOR 4 WK BEGINNING POST CARCINOGEN DOSE (STUDY DURATION: 4 MO), Route [Inhibitor]: SUBCUTANEOUS, Species: MOUSE, Strain/Sex: ICR/FEMALE, Target Tissue: Type of Lesion: LUNG: TUMOR, Dose [Carcinogen]: 10 MG/KG BW ONCE ADMINISTERED TO NEONATAL MICE, Promoter: NONE USED) 9/11 (82%), 4/7 (57%), 30%, not calculated; (Carcinogen: 7,12-DIMETHYLBENZ[A]ANTHRACENE, 57-97-6, Dose [Inhibitor]: 0, 26 MG/KG BW 1/WK FOR 4 WK BEGINNING POST CARCINOGEN DOSE (STUDY DURATION: 4 MO), Route [Inhibitor]: SUBCUTANEOUS, Species: MOUSE, Strain/Sex: ICR/MALE, Target Tissue: Type of Lesion: LUNG: TUMOR, Dose [Carcinogen]: 1 MG/KG BW ONCE ADMINISTERED TO NEONATAL MICE, Promoter: NONE USED) 2/10 (20%), 0/9 (0%), 100%, not calculated; (Carcinogen: 7,12-DIMETHYLBENZ[A]ANTHRACENE, 57-97-6, Dose [Inhibitor]: 0, 26 MG/KG BW 1/WK FOR 4 WK BEGINNING POST CARCINOGEN DOSE (STUDY DURATION: 4 MO), Route [Inhibitor]: SUBCUTANEOUS, Species: MOUSE, Strain/Sex: ICR/MALE, Target Tissue: Type of Lesion: LUNG: TUMOR, Dose [Carcinogen]: 10 MG/KG BW ONCE ADMINISTERED TO NEONATAL MICE, Promoter: NONE USED) 9/11 (82%), 4/9 (44%), 46%, not calculated; (Carcinogen: 7,12-DIMETHYLBENZ[A]ANTHRACENE, 57-97-6, Dose [Inhibitor]: 0, 26 MG/KG BW 1/WK FOR 4 WK BEGINNING POST CARCINOGEN DOSE (STUDY DURATION: 6 MO), Route [Inhibitor]: SUBCUTANEOUS, Species: MOUSE, Strain/Sex: ICR/MALE, Target Tissue: Type of Lesion: LIVER: TUMOR, Dose [Carcinogen]: 10 MG/KG BW ONCE ADMINISTERED TO NEONATAL MICE, Promoter: NONE USED) 4/11 (36%), 2/17 (12%), 67%, not calculated; (Carcinogen: 7,12-DIMETHYLBENZ[A]ANTHRACENE, 57-97-6, Dose [Inhibitor]: 0, 26 MG/KG BW 1/WK FOR 4 WK BEGINNING POST CARCINOGEN DOSE (STUDY DURATION: 6 MO), Route [Inhibitor]: SUBCUTANEOUS, Species: MOUSE, Strain/Sex: ICR/MALE, Target Tissue: Type of Lesion: LUNG: TUMOR, Dose [Carcinogen]: 1 MG/KG BW ONCE ADMINISTERED TO NEONATAL MICE, Promoter: NONE USED) 3/10 (30%), 1/9 (11%), 63%, not calculated. Further, the “tumour outcome (control, treated, inhibition, significance)” value (Carcinogen: 7,12-DIMETHYLBENZ[A]ANTHRACENE, 57-97-6, Dose [Inhibitor]: 0, 26 MG/KG BW 1/WK FOR 4 WK BEGINNING POST CARCINOGEN DOSE (STUDY DURATION: 6 MO), Route [Inhibitor]: SUBCUTANEOUS, Species: MOUSE, Strain/Sex: ICR/MALE, Target Tissue: Type of Lesion: LUNG: TUMOR, Dose [Carcinogen]: 10 MG/KG BW ONCE ADMINISTERED TO NEONATAL MICE, Promoter: NONE USED) was 9/11 (82%), 13/17 (76%), 7%, not calculated.
For the molecule `C[S+](C)CC(=O)[O-]`, the “tumour outcome (control, treated, inhibition, significance)” value (Carcinogen: 7,12-DIMETHYLBENZ[A]ANTHRACENE, 57-97-6, Dose [Inhibitor]: 0, 0.005 MOL/KG DIET BEGINNING 2 WK PRIOR TO CARCINOGEN AND CONTINUED FOR STUDY DURATION (STUDY DURATION: 25 WK), Route [Inhibitor]: ORAL, Species: RAT, Strain/Sex: CD-1/FEMALE, Target Tissue: Type of Lesion: MAMMARY GLAND: ADENOCARCINOMA, Dose [Carcinogen]: 10 MG ONCE, Promoter: NONE USED) is given as 20/25 (80%), 19/25 (76%), 5%, not significant; the “tumour outcome (control, treated, inhibition, significance)” value (Carcinogen: 7,12-DIMETHYLBENZ[A]ANTHRACENE, 57-97-6, Dose [Inhibitor]: 0, 0.01 MOL/KG DIET BEGINNING 2 WK PRIOR TO CARCINOGEN AND CONTINUED FOR STUDY DURATION (STUDY DURATION: 25 WK), Route [Inhibitor]: ORAL, Species: RAT, Strain/Sex: CD-1/FEMALE, Target Tissue: Type of Lesion: MAMMARY GLAND: ADENOCARCINOMA, Dose [Carcinogen]: 10 MG ONCE, Promoter: NONE USED) is reported as 20/25 (80%), 21/25 (84%), -5%, not significant; the “tumour outcome (control, treated, inhibition, significance)” value (Carcinogen: 7,12-DIMETHYLBENZ[A]ANTHRACENE, 57-97-6, Dose [Inhibitor]: 0, 0.02 MOL/KG DIET BEGINNING 2 WK PRIOR TO CARCINOGEN AND CONTINUED FOR STUDY DURATION (STUDY DURATION: 25 WK), Route [Inhibitor]: ORAL, Species: RAT, Strain/Sex: CD-1/FEMALE, Target Tissue: Type of Lesion: MAMMARY GLAND: ADENOCARCINOMA, Dose [Carcinogen]: 10 MG ONCE, Promoter: NONE USED) is on record as 20/25 (80%), 18/25 (72%), 10%, not significant.
As to `CC(C#Cc1ccc(Oc2ccc(F)cc2)o1)N(O)C(N)=O` (configuration not stated), the “tumour outcome (control, treated, inhibition, significance)” value (Carcinogen: 4-(METHYLNITROSAMINO)-1-(3-PYRIDYL)-1-BUTANONE, 64091-91-4, Dose [Inhibitor]: 0, 74 MG/KG DIET FOR DURATION OF STUDY BEGINNING 2 WK PRIOR TO CARCINOGEN TREATMENT (STUDY DURATION: 25 WK), Route [Inhibitor]: ORAL, Species: MOUSE, Strain/Sex: STRAIN-A/FEMALE, Target Tissue: Type of Lesion: LUNG: TUMOR, Dose [Carcinogen]: 9.1 MG/MOUSE IN DRINKING WATER FOR 7 WK, Promoter: NONE USED) was 29/29 (100%), 20/25 (80%), 20%, p<0.001.
